These results are taken from a melting point compilation (Tetko et al.; mined from patent text by program, amines drawn as free bases though some values may be those of a salt).

Structures are written as SMILES.

As usually defined, the melting point is the temperature, or range, at which the solid turns liquid. On to `CCc1c(C(=O)OC(C)C)ncc2[nH]c3ccc4ncc(C)nc4c3c12`, for which the melting point fell in the range of 215 to 216 °C.
Take `CCN(CC)Cc1nc2cc(OC)c(OC)cc2c(-c2ccc(OC)c(OC)c2)c1C(=O)c1ccccc1`: the melting point is 150 to 151 °C.
`CCOC(=O)Nc1cc(-c2cccc3ccccc23)c2nc(C(=O)O)ccc2c1` returned a melting point of 205 to 208 °C.
Next, `CCC1CN(c2nc(C)nc(NC)n2)c2ccccc21` (stereo unspecified): 168 to 170 °C.
As for `O=C(O)COc1cccc2c1CCc1sc(SCC(c3ccccc3)c3ccccc3)nc1-2`, the figure is 223 to 225 °C; as for `CCOC(=O)COc1ccc(C(=O)c2ccc(O)cc2)c(Cl)c1Cl`, 127 to 129 °C; as for `CN(C)CCOc1ccc(Nc2nccc(-c3cccnc3)n2)cc1`, 108 to 110 °C.
Take `O=[N+]([O-])c1cccc(C2C3=C(CCCS3)NC3=C2SCCC3)c1`: the melting point is over 260 °C.
As for `C#CCOc1ccc(COC(C)=O)cc1OC`, the figure is 69 to 71 °C; as for `c1ccc2c(c1)Oc1ccccc1C2NCc1ccncc1`, 83 to 85 °C.
Next, `O=C1COc2ccc(C3=Nc4ccccc4SC3c3ccccn3)cc2N1` (stereo unspecified): 168 to 170 °C; `COC(=O)C1=Cc2cc(-c3ccc(C)cc3)ccc2S(=O)(=O)CC1`: 203 to 204 °C; `CCCCCCc1ccc(NC2=NCCS2)cc1`: 77 to 79 °C.
`CC/C(=C\C#CC(O)(C(F)(F)F)C(F)(F)F)c1cccc(CCc2ccc(CO)c(CO)c2)c1` returned a melting point of 123 °C.
On to `N#CCCNC(=O)c1cccc(-c2cccc(Oc3cccc(Cl)c3)n2)c1`, for which the melting point is 139 to 140 °C.
As for `O=[N+]([O-])c1ccc2c(c1)S(=O)(=O)N=C(NC1CCC1)N2`, the figure is 298 to 301 °C.
In turn, `CCN(CC)C(=O)Nc1ccc(S(=O)(=O)N2C(=O)C(N)(c3ccccc3Cl)c3cc(Cl)ccc32)cc1` (stereo unspecified) came in with a melting point of 195 to 196 °C.
Next, `CCCOCc1cc(OC)c(-c2ccc(C[C@H](NC(=O)c3c(Cl)cccc3Cl)C(=O)O)cc2)c(OC)c1`: 183 to 186 °C; `O=C(CCc1ccccc1)C(Cc1ccccc1)C(=O)CCc1ccccc1`: 74 to 75 °C.
Next, `COc1ccc(C=CC(=O)Nc2cccc(C(=O)O)c2)cc1OC`: 225 to 226 °C.
For the compound `O=C(CCCC(=O)N1C(=O)OC[C@@H]1c1ccccc1)c1ccc(F)cc1`, the melting point turned out to be 91 °C.
As for `COC(=O)c1nn(-c2ccccc2)c2c1CCc1cc(Cl)ccc1-2`, the figure is 190 to 192 °C.
Compound `CCC(=O)c1c[nH]c2c(OC)cccc2c1=O` displayed a melting point of 260 to 263 °C.
`N[C@@H](C/C(=C\C1CCCCC1)C(=O)O)C(=O)O` yielded a melting point of 205 °C.
Next, `Cc1cccnc1C(CO)COc1ccc([N+](=O)[O-])cc1` (stereo unspecified): 135 to 136 °C.
Compound `CN=C(NC#N)NCCSCc1c[nH]cn1` registered a melting point of 138 to 140 °C.
Next, `OCc1cccc(/C=C/c2ccccc2)c1`: 87 to 88 °C.
Compound `CCc1cc2c(s1)-n1c(C)nnc1C(CCCCC(=O)Nc1ccccc1)N=C2c1ccc(Cl)cc1` (stereo unspecified) gave a melting point of 238 to 240 °C.
The compound `CCc1c2ccccc2nc2c1c(C)nn2-c1ccccn1` displayed a melting point of 112 to 114 °C.
As for `OCCN1CCN(c2cc(Sc3ccc(Cl)cc3)nc(-c3ccccc3)n2)CC1`, the melting point fell in the range of 118 to 120 °C.
As to `COc1cccc(CC(=O)N2CCN(c3cccc(C(F)(F)F)c3)CC2)c1`, the melting point lay within 99 to 101 °C.
As for `CN(C)C(=O)Nc1ccc(Oc2ccnc(Cl)n2)cc1`, the figure is 192 °C; as for `COC(=O)c1ccc(CC(C)NCC(O)c2ccc(O)c(CO)c2)c(OC)c1` (stereo unspecified), 96 to 105 °C; as for `CC(C)CC(COCC(N)=O)NC(=O)C1CCCN1C(=O)OCc1ccccc1` (stereo unspecified), 146 to 148 °C.
Compound `COc1ccc2cc([C@H](C)C(=O)OCC(=O)N(C)CC(=O)OCCCO[N+](=O)[O-])ccc2c1` came in with a melting point of 41 to 43 °C.
Compound `O=C(NCCCCO)OCc1ccccc1` had a melting point of 80 to 81 °C.
`COC(=O)c1ccc(NC(=O)c2ccccc2-c2ccccc2)cc1Cl` registered a melting point of 132 to 134 °C.
As to `COC(=O)c1nn(-c2ccc(OCc3ccccc3)cc2F)cc(OC)c1=O`, the melting point was 143 to 144 °C.
For `Nc1ccc(C23CC(C2)C(=O)N(CC2CCCCC2)C3=O)cc1`, the melting point lay in the range of 140 to 146 °C.
Next, `O=C(CCCCCl)c1c[nH]c2ccccc12`: 165 to 167 °C; `CN(C)C(=O)C=Cc1c(C#N)cnn1-c1ncc(C(F)(F)F)cc1Cl`: 116 to 120 °C.
As for `COc1ccc([N+](=O)[O-])cc1C(=O)NCc1ccc(C(F)(F)F)cc1`, the melting point lay within 108 to 109 °C.
Next, `CCOC(=O)C(Cc1ccc(O)cc1)c1cc2cc(C#N)ccc2s1` (stereo unspecified): 146 to 147 °C.
Next, `CCn1c(C)c(I)c(=O)n(CC)c1=O`: 159 to 162 °C.
Turning to `COC(=O)N=C(NC(=O)OC)Nn1cccc1C(=O)OC`, the melting point was determined as 160 °C.
`Cc1coc2ccc(C#N)cc12`: the melting point is 73 °C.
`CC1=C(c2ccc(O)cc2)C(=O)c2cc(O)ccc21` displayed a melting point of 125 to 129 °C.
With `O=C1N[C@H](Cc2ccc(F)cc2)[C@H](c2ccc(F)cc2)O1` (racemic), the melting point was in the range of 197 to 198 °C.
As to `OC(c1ccccc1)c1cc2ccccc2cc1C(O)c1ccccc1` (stereo unspecified), the melting point is 145 °C.
For `COc1ccc(CNc2ccnc(Cl)c2C(=O)O)cc1Cl`, the melting point is 228 to 230 °C.
For the compound `CSc1ccc(CSc2nnc(-c3ccc4c(c3)CCO4)o2)cc1C(F)(F)F`, the melting point was 108 to 109 °C.
Next, `Cc1ccccc1-c1ccc(C(=O)N2Cc3ccc(C(=O)NCc4cccc(C(F)(F)F)c4)n3Cc3ccccc32)cc1C`: 171 to 173 °C; `COCCOc1cc(N(C)S(=O)(=O)c2cccs2)c2[nH]c(C3=NCC(CCO)S3)cc2c1` (stereo unspecified): 122 to 123 °C; `Nc1ccc(F)c(C(=O)NCC(=O)O)c1`: 252 to 254 °C.
As for `C=CCNc1cc(C)nc2c(-c3ccccc3)n[nH]c12`, the figure is 92 to 105 °C; as for `CCC(CC)Nc1cc(C)nc(Oc2c(C)cc(Cl)cc2C)c1[N+](=O)[O-]`, 152 to 154 °C; as for `O=C1N(CC2CCOCC2)c2ccccc2C12COc1cc3c(cc12)OCO3` (stereo unspecified), 142 to 144 °C.
Next, `CCOC(=O)c1cn(CC)c2cc(-c3cc(C)nc(C)c3)c(F)cc2c1=O`: 221 to 224 °C.
`O=C(NC(=O)c1c(Cl)cccc1Cl)Nc1cncc(C(F)(F)F)n1` registered a melting point of 188 to 192 °C.
The compound `COc1ccc([C@H](CC(=O)O)N2CCN(CCCc3ccc4c(n3)NCCC4)C2=O)cn1` had a melting point of 122 °C.
Compound `CCOC(=O)c1c(C(=O)c2nc(OC)cc(OC)n2)ccnc1Br` yielded a melting point of 98 to 99 °C.
For `COc1c(C)c2c(c(N)c1C/C=C(\C)CCC(=O)O)C(=O)OC2`, the melting point lay in the range of 130 to 131 °C.
Turning to `Cc1ccc(N2C(=O)C(O)=C(C(=O)c3ccc(C(C)C)cc3)C2c2ccc(Cl)cc2)nn1` (stereo unspecified), the melting point is 258 to 260 °C.
The compound `CCCC(NS(=O)(=O)c1ccc(Cl)cc1)C(=O)Nc1ccc(CC(=O)OCC)cc1` (racemic) returned a melting point of 93 to 95 °C.
As for `CC(C(=O)O)C(=O)c1ncc(Cl)cc1F` (stereo unspecified), the figure is 101 to 102 °C; as for `O=c1c(-c2ccccc2)c(-c2ccccc2)oc2cc(OCC3CO3)ccc12` (stereo unspecified), 143 to 145 °C; as for `O=C(O)c1cc(Cl)ccc1Nc1ccc(OCc2ccccc2)cc1`, 189 to 191 °C.
Regarding `O=[N+]([O-])c1cccc(-n2cccn2)c1`, the melting point fell in the range of 85 to 87 °C.
Turning to `C=C1C(=O)NC(=O)N1c1ccc(Cl)cc1`, the melting point lay in the range of 185 to 187 °C.
The compound `COC(=O)c1ccc2oc(-c3ccccc3OC(C)C)cc(=O)c2c1` showed a melting point of 154 to 155 °C.
Next, `CS(=O)(=O)c1nc(Cl)c(-c2c(F)cc(F)cc2F)c(N2CCCO2)n1`: 210 to 219 °C.
The compound `O=C1c2ccccc2C(=O)N1CCCN1CCC(=C(c2ccccc2)c2ccccc2)CC1` registered a melting point of 108 to 110 °C.
As for `CN(C)Cc1nc(CSCCNC(=C[N+](=O)[O-])NCC(O)c2ccccc2)cs1` (stereo unspecified), the figure is 100 to 101 °C; as for `CCCCNc1cc(C(=O)O)cc(S(N)(=O)=O)c1Oc1cccc(NC(C)=O)c1`, 235 to 240 °C; as for `O=c1oc(-c2ccccc2)cc(O)c1SCc1cccc(OCCc2ccccc2)c1`, 85 to 90 °C.
Next, `Cc1cc2c(cc1O)C(C)(C)CC2`: 70 to 71 °C; `CC(=O)OC1CCC2(C)C(CCC3C2CC(OC(C)=O)C2(C)C(C(C)CCC=O)CCC32)C1` (stereo unspecified): 145 °C; `CCc1nn2ccccc2c1N(CCF)C(=O)COC`: 66.9 to 70.6 °C.
As for `CNc1cccc(N)c1C(N)=O`, the figure is 130 to 132 °C; as for `COc1cccc(Sc2ccc3c(c2)CC[C@H]2NC(=O)CC[C@]32C)c1`, 154 to 156 °C.
Consider `CC(=O)c1cccc(F)c1C(=O)O`, for which the melting point is 76 to 81.5 °C.
As for `O=C(O)CCC(=O)c1ccc(N2CCOCC2)cc1`, the figure is 167 to 168 °C.
The compound `CC(C)Nc1ccc2c(c1)N1CCN=C1S2` showed a melting point of 128 °C.
Regarding `CCCCc1ncc(/C=C2\C(=O)NC(=O)N2CCCC)n1Cc1ccc(C(=O)O)cc1`, the melting point was 163 to 165 °C.
Next, `COc1c2c(c(OC)c(OC)c1OC)CCC(CCn1cnc3ccccc31)CC2`: 121 to 123 °C; `Cc1[nH]n(C2CCCC2)c2nc(C3CCN(C(=O)C(F)(F)F)CC3)nc(=O)c1-2`: 219 to 221 °C.
Next, `C/C(=C(\C#N)C(N)=S)N1CCCN(c2cccc(Cl)c2)CC1`: 133 to 134 °C; `Oc1nc(Cl)n(CCOc2ccccc2)n1`: 166 °C.
Next, `CCCCN1C(=O)CSC(=NOC(=O)NC)C1C` (stereo unspecified): 118 to 120 °C; `O=C(NCCO)c1cnccn1`: 125 °C; `NNC1=Nc2sc(Cl)cc2C(c2ccccc2)=NC1`: 204 to 207 °C.
